Measured values published in ChEMBL document CHEMBL1137340, “Binding of 13-amidohuprines to acetylcholinesterase: exploring the ligand-induced conformational change of the gly117-gly118 peptide bond in the oxyanion hole” (J Med Chem, 2006).

Experiments:
Acetylcholinesterase [1] = target: T1, Acetylcholinesterase (Bos taurus, UniProt P23795)
T1 sequence (P23795 whole entry): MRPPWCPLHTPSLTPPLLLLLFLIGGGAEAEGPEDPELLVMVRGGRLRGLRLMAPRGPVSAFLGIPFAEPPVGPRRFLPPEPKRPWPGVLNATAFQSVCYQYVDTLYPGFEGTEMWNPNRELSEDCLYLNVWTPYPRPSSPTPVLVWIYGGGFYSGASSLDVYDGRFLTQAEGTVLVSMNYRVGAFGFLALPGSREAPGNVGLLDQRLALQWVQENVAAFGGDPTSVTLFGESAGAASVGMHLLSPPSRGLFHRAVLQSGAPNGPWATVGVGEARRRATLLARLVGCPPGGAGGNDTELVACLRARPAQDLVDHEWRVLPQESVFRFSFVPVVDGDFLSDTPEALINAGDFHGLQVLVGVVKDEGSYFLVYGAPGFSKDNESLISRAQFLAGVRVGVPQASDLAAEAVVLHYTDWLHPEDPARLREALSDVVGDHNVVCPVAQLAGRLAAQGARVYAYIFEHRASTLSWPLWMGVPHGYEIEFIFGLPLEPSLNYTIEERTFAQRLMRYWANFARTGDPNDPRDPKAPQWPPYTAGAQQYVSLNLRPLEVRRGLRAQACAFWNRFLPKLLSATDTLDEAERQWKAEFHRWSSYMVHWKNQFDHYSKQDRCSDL
Description: Inhibition of bovine erythrocyte AChE

Cholinesterase = Cholinesterase (Homo sapiens, UniProt P06276)
Description: Inhibition of human serum BChE

Acetylcholinesterase [2] = target: T1, Acetylcholinesterase; remark: listed apart in the source
Description: Inhibition of bovine erythrocyte AChE after 45 mins

Acetylcholinesterase [3] = target: Acetylcholinesterase (Homo sapiens, UniProt P22303)
Acetylcholinesterase (Homo sapiens, UniProt P22303), sequence (P22303 whole entry): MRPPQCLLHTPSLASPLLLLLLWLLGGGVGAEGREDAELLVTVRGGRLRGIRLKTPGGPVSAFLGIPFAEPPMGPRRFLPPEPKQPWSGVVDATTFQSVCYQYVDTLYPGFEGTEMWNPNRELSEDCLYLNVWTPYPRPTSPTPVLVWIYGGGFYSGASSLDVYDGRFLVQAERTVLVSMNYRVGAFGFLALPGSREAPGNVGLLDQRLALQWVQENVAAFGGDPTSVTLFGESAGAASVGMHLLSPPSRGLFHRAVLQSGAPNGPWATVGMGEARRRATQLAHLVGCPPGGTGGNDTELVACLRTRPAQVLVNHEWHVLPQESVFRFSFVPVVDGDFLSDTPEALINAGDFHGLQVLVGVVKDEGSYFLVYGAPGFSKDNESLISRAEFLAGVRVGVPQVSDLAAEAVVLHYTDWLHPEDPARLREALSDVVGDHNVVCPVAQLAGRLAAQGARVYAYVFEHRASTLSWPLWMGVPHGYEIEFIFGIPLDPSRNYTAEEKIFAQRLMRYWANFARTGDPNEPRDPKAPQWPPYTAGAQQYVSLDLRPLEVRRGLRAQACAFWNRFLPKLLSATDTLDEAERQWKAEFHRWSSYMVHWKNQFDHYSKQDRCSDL
Description: Inhibition of human erythrocyte AChE

Cholinesterase, sequence (P06276 whole entry): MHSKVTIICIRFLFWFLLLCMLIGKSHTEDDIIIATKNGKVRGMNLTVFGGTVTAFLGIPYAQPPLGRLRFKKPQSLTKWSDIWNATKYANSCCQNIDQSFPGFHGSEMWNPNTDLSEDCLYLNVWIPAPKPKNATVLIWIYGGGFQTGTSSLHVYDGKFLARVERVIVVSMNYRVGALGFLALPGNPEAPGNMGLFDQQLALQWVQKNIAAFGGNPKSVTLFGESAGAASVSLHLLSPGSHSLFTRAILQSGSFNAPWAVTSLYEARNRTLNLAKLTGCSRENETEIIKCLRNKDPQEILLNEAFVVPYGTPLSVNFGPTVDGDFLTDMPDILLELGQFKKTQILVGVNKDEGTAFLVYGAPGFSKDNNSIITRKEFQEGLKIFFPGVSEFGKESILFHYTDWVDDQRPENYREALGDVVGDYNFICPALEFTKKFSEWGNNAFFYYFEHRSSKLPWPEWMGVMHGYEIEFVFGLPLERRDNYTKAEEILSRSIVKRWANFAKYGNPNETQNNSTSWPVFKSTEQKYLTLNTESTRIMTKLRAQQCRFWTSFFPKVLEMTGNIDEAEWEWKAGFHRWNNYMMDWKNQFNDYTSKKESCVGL

Compound	IC50 (Acetylcholinesterase [1]) [nM]	IC50 (Cholinesterase) [nM]	IC50 (Acetylcholinesterase [2]) [nM]	IC50 (Acetylcholinesterase [3]) [nM]
CC1=C[C@@H]2Cc3nc4cc(Cl)ccc4c(N)c3[C@H](C1)C2	1.15			
CCC1=C[C@@H]2Cc3nc4ccccc4c(N)c3[C@H](C1)C2	27.4			
CCC1=C[C@@H]2Cc3nc4cc(C)ccc4c(N)c3[C@H](C1)C2	4.5			
CCC1=C[C@@H]2Cc3nc4cc(Cl)ccc4c(N)c3[C@H](C1)C2	1.3			
CCC1=CC2Cc3nc4cc(Cl)ccc4c(N)c3C(C1)C2 (racemic)	2.77			
CC12CC3Cc4nc5cc(Cl)ccc5c(N)c4C(C1)C3N2S(C)(=O)=O (racemic)	1320	9220	304	
CC12CC3Cc4nc5cc(Cl)ccc5c(N)c4C(C1)C3N2 (racemic)	5680	> 10000	4380	
CC(=O)NC1C2C=C(C)CC1c1c(nc3cc(Cl)ccc3c1N)C2 (racemic; form 1)	1690	8490	1370	
CC1=CC2Cc3nc4cc(Cl)ccc4c(N)c3C(C1)C2NC=O (racemic; form 1)		> 10000		98
CC1=CC2Cc3nc4cc(Cl)ccc4c(N)c3C(C1)C2NS(C)(=O)=O (racemic; form 1)	118	> 10000	39	40.5
CC1=CC2Cc3nc4cc(Cl)ccc4c(N)c3C(C1)C2N (racemic; form 1)	389	6480	447	225
CC(=O)NC1C2C=C(C)CC1c1c(nc3cc(Cl)ccc3c1N)C2 (racemic; form 2)		> 10000	1330	
CC1=CC2Cc3nc4cc(Cl)ccc4c(N)c3C(C1)C2NC=O (racemic; form 2)		3980		
CC1=CC2Cc3nc4cc(Cl)ccc4c(N)c3C(C1)C2NS(C)(=O)=O (racemic; form 2)	1370		2450	
CC1=CC2Cc3nc4cc(Cl)ccc4c(N)c3C(C1)C2N (racemic; form 2)	482	601	478	
